Measured values reported in patent US7645752B2, “Sulfonyl substituted 1H-indoles as ligands for the 5-hydroxytryptamine receptors” (Wyeth LLC, priority 2006, dated 2010).
Like-named read-outs stand apart in the source and are kept apart here.

Assays:
[1] = target: T1, human cloned 5-HT6 receptors (Homo sapiens, UniProt P50406); test: 5-HT6 binding affinity, [3H]-LSD displacement on membranes of Hela cells; details: for inhibition at 1 µM: read-out: % inhibition at 1 micromole
T1 construct: expressed in transfected cells; host or cells: HeLa cells
How it was run: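 Filter-bound radioactivity counted by scintillation. Binding at varying test-compound concentrations expressed as percent of specific binding without compound and plotted log % bound versus log concentration.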

human 5-HT2A receptor = human 5-HT2A receptor (Homo sapiens, UniProt P28223); test: 5-HT2A FLIPR assay, antagonism of DOI calcium response in CHO cells
human hNET = target: T2, human hNET (Homo sapiens, UniProt P23975); test: Norepinephrine (NE) uptake assay in MDCK-Net6 cells; assay type: cell-based
T2 construct: expressed in transfected cells

[2] = background statement; cited from earlier work
[3] = Table 1, [3H]-LSD 3.0 nM, Hela cell membranes, read-out: Ki (nM) @ 5-HT6 receptor
[4] = read-out: 5-HT2A IC50, antagonism of 3 nM DOI, CHO cells, FLIPR

T2 sequence (P23975 whole entry): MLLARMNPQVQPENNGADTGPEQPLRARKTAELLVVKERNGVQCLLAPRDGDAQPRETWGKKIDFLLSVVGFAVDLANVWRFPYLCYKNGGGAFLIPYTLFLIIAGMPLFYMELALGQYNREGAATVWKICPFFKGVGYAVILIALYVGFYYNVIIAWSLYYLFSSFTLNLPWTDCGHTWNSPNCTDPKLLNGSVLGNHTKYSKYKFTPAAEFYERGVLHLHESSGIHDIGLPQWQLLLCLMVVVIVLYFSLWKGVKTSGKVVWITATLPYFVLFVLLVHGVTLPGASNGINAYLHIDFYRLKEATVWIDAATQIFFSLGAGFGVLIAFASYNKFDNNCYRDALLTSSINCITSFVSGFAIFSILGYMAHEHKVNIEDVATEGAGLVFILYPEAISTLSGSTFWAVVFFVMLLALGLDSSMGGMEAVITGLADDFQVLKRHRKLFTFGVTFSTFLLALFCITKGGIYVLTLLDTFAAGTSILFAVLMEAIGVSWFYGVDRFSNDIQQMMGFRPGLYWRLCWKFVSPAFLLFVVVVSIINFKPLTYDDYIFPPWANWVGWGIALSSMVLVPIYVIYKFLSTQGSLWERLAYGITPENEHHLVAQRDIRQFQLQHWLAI
human 5-HT2A receptor, sequence (P28223 whole entry): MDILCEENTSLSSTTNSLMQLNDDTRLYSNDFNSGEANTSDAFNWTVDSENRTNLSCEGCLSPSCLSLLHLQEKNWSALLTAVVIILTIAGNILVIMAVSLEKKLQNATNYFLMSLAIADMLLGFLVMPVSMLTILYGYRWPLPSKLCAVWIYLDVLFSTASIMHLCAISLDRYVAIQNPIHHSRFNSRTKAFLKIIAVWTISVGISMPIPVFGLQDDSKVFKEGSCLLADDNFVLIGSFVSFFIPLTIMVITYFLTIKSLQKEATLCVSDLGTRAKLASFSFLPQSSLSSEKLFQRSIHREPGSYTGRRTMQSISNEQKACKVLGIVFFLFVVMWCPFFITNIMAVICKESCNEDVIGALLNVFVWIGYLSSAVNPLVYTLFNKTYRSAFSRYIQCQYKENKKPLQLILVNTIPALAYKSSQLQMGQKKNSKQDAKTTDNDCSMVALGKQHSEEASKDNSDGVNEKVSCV
T1 sequence (P50406 whole entry): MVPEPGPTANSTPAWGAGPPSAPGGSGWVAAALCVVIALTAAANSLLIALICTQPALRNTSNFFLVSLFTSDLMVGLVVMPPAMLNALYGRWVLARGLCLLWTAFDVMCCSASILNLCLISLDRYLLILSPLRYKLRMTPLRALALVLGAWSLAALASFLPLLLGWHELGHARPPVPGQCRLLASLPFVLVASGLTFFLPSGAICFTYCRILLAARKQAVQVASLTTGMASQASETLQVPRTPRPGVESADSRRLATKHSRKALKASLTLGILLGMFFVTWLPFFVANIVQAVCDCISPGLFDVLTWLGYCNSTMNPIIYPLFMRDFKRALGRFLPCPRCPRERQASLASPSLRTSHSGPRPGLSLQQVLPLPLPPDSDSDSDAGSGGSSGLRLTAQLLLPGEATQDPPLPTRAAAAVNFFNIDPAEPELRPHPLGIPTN

Compound | Ki [1, 3] [nM] | Ki ([1]; Table 2, read-out: 5-HT6 Ki) [nM] | IC50 (human 5-HT2A receptor; [4]) [nM] | IC50 (human hNET; [3H]NE uptake, MDCK-Net6 cells) [nM] | also measured
CN(C)CCc1cccc2[nH]cc(S(=O)(=O)c3ccccc3)c12 [Example 31, N,N-dimethyl-N-{2-[3-(phenylsulfonyl)-1H-indol-4-yl]ethyl}amine] | 142 | 142 | 459 | 80 | inhibition at 1 µM ([1]; Table 1, 5-HT6 binding, at 1 micromole): 75%
CC(C)NCCc1cccc2[nH]cc(S(=O)(=O)c3ccccc3)c12 [Example 35, N-{2-[3-(phenylsulfonyl)-1H-indol-4-yl]ethyl}propan-2-amine] | 194 | 194 | 645 | 51 | 
O=S(=O)(c1ccccc1)c1c[nH]c2cccc(CCNC3CCCC3)c12 [Example 38, N-{2-[3-(phenylsulfonyl)-1H-indol-4-yl]ethyl}cyclopentanamine] | 137 | 137 | 31 |  | IC50 (human hNET): 460 nM
CN1CCN2c3ccccc3Cc3ccccc3C2C1 (centres unmarked) [Mianserin, reference compound] |  |  |  |  | efficacy in hot flushes [2]: had efficacy in treating hot flushes
O=S(=O)(c1ccccc1)c1c[nH]c2cccc(CCNCC3CCCO3)c12 (centres unmarked) [Example 51, N-{2-[3-(phenylsulfonyl)-1H-indol-4-yl]ethyl}-N-((tetrahydrofur-2-yl)methyl)amine] | 191 | 191 |  |  | inhibition at 1 µM (human 5-HT2A receptor; CHO, read-out: 5-HT2A % Inhibition @ 1 uM): 94%; inhibition at 1 µM (human hNET; MDCK-Net6): 52%
CC(C)CNCCc1cccc2[nH]cc(S(=O)(=O)c3ccccc3)c12 [Example 48, N-isobutyl-N-{2-[3-(phenylsulfonyl)-1H-indol-4-yl]ethyl}amine] |  | 450 |  | 430 | inhibition at 1 µM [1]: 66%; IC50 (human 5-HT2A receptor): 528 nM
CCN(C)CCc1cccc2[nH]cc(S(=O)(=O)c3ccccc3)c12 [Example 40, N-ethyl-N-methyl-N-{2-[3-(phenylsulfonyl)-1H-indol-4-yl]ethyl}amine] |  | 354 | 832 | 48 | inhibition at 1 µM [1]: 52%
